Assay results published in patent US20240210412A1, “SULFONYL-TRIAZOLE COMPOUNDS USEFUL AS LIGANDS AND INHIBITORS OF PROSTAGLANDIN REDUCTASE 2” (University of Virginia Patent Foundation, priority 2021, published 2024).

What was measured:
[1] = biological target: T1, P16930 (fumarylacetoacetase, FAH) (Homo sapiens, UniProt P16930); experiment: SILAC LC-MS ABPP; format: cell-based
T1 construct: endogenous in cells; host or cells: DM93 (SILAC)
Procedure: Cells were grown to 90-95% confluence before being washed once with warm, sterile DPBS (1×, 5 mL), followed by addition of 10 mL of serum-free media (supplemented with 1% L-glutamine) containing either DMSO or SuTEx fragment (in DMSO) was added. Light cells were treated with DMSO vehicle while the heavy cells were treated with DMSO or SuTEx fragment (in DMSO) and incubated for 2 hrs. After 2 hrs, the cells were treated with SuTEx alkyne probe (HHS475, 10 μL of 1000× DMSO stock) and incubated for an additional 2 hrs. The media was aspirated and cells washed with cold PBS (5 mL) and harvested. Cells were spun at 500×g for 5 min at 4° C. followed by removal of supernatant. […]
Coupling cell-based screens with chemical proteomics can facilitate the identification of target protein and binding sites that engage and are irreversibly modified by covalent ligands^[12]. In these assays, covalent ligands block SuTEx activity-based probe (ABP) labeling at protein sites, and the competition of probe labeling can be used to quantify potency and selectivity across the proteome^[10a]. To facilitate quantitative chemical proteomics, DM93 melanoma cells were cultured using stable isotopic labeling by amino acids in cell culture (SILAC)^[13]. […] Probe-modified peptides were resolved, identified, and quantified by high-resolution liquid chromatography-tandem mass spectrometry (LC-MS/MS). […]

[2] = biological target: T2, Q8N8N7 (prostaglandin reductase 2, PTGR2) (Homo sapiens, UniProt Q8N8N7); experiment: SILAC LC-MS ABPP; format: cell-based
T2 construct: endogenous in cells; host or cells: DM93 cells (SILAC), live-cell treatment
T2 sequence (Q8N8N7 whole entry): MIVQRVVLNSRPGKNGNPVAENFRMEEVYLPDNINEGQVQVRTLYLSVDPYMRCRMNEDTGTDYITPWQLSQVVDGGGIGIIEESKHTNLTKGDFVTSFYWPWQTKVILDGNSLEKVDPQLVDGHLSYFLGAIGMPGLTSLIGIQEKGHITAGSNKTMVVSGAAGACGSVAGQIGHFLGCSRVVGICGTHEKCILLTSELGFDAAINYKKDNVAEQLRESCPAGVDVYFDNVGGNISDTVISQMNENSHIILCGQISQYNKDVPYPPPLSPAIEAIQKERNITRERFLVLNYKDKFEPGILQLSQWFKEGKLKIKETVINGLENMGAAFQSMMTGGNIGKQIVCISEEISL
Procedure: Cells were grown to 90-95% confluence before being washed once with warm, sterile DPBS (1×, 5 mL), followed by addition of 10 mL of serum-free media (supplemented with 1% L-glutamine) containing either DMSO or SuTEx fragment (in DMSO) was added. Light cells were treated with DMSO vehicle while the heavy cells were treated with DMSO or SuTEx fragment (in DMSO) and incubated for 2 hrs. After 2 hrs, the cells were treated with SuTEx alkyne probe (HHS475, 10 μL of 1000× DMSO stock) and incubated for an additional 2 hrs. The media was aspirated and cells washed with cold PBS (5 mL) and harvested. Cells were spun at 500×g for 5 min at 4° C. followed by removal of supernatant. Pellets were resuspended in 1 mL of cold DPBS and spun at 1,400×g for 3 min at 4° C. followed by removal of supernatant. The cells were lysed in PBS by sonication and fractionated (100,000×g, 45 min, 4° C.).The light and heavy soluble fractions were diluted to 2.3 mg/mL in PBS and 432 μL were used for analysis (1 mg total protein). The probe-modified proteomes were conjugated to desthiobiotin-PEG3-azide (10 μl of 10 mM stock in DMSO; 200 μM final concentration) using TCEP (10 μl of fresh 50 mM stock in water, 1 mM final concentration), TBTA ligand (33 μl of a 1.7 mM 4:1 t-butanol/DMSO stock, 100 μM final concentration) and CuSO4 (10 μl of 50 mM stock, 1 mM final concentration). Samples were vortexed to mix and incubated for 1 hr at room temperature. The heavy and light proteomes were mixed 1:1 and the subsequent steps, including LC-MS/MS data analysis, were performed as previously described^[8a].
Coupling cell-based screens with chemical proteomics can facilitate the identification of target protein and binding sites that engage and are irreversibly modified by covalent ligands^[12]. In these assays, covalent ligands block SuTEx activity-based probe (ABP) labeling at protein sites, and the competition of probe labeling can be used to quantify potency and selectivity across the proteome^[10a]. To facilitate quantitative chemical proteomics, DM93 melanoma cells were cultured using stable isotopic labeling by amino acids in cell culture (SILAC)^[13]. Cells cultured in “light” media were treated with dimethyl sulfoxide (DMSO) vehicle while cells cultured in “heavy” media were treated with SuTEx ligand (25 μM, 2 hours, 37° C.). Next, cells were treated with HHS-475 probe (100 μM, 2 hours, 37° C.) followed by lysis and processing of proteomes for analysis. Probe-modified proteins from the soluble fraction were conjugated to a desthiobiotin-azide tag by copper-catalyzed azide-alkyne cycloaddition (CuAAC)^[14] followed by mixing of the light and heavy proteomes. The combined proteomes were digested with trypsin protease to produce probe-modified peptides, followed by enrichment and purification by avidin affinity chromatography. Probe-modified peptides were resolved, identified, and quantified by high-resolution liquid chromatography-tandem mass spectrometry (LC-MS/MS). Resultant data were analyzed as previously described^[8a, 10a]. Table 2, below, lists sites of modification targeted by sulfonyl-triazole compounds HHS-0101, HHS-0201, HHS-0301, HHS-0401, and HHS-0701. The format of the table is as follows: protein Uniprot accession number (see uniprot.org); tyrosine site (amino acid position) modified; treatment (sulfonyl-triazole compound identification number, followed by Y (where if multiple compounds modify the same site, the compounds are separated by vertical lines).
Confirmatory studies were also performed on prostaglandin reductase 2 (PTGR2) because of its role in the reduction of the bioactive lipid, 15-keto-PGE2^[17]. […] The chemical proteomic studies also identified additional tyrosine sites (e.g. Y265) competed by HHS-0701 albeit to a lesser degree (SR<5) compared with Y100. […]

T1 sequence (P16930 whole entry): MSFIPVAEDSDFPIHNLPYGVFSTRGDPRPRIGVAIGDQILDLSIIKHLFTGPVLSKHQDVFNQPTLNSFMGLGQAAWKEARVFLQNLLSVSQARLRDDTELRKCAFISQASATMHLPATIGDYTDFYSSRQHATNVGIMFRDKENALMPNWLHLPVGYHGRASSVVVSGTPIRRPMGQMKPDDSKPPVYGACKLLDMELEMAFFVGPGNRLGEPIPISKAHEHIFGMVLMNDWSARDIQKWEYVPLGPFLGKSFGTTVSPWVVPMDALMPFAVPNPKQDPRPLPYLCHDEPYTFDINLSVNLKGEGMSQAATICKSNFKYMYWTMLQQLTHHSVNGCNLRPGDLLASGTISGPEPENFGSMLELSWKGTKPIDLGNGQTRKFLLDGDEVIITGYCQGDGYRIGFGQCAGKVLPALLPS

O=C(NC1CC1)c1ccc(S(=O)(=O)n2cncn2)cc1 [HHS-0101, 4-((1H-1,2,4-triazol-1-yl)sulfonyl)-N-cyclopropylbenzamide]
liganded tyrosine site 244 ([1]; 25 μM 2 h, live DM93 cells): HHS0101.Y|HHS0201.Y|HHS0301.Y|HHS0401.Y|HHS0701.Y (tyrosine sites that showed >80% reductions (SR >5) in probe labeling in cells treated with compounds (liganded sites)) | SILAC ratio (SR), PTGR2 Y100 ([2]; 25 μM 2 h, live DM93 cells): 1.4

O=C(NCc1ccccc1)c1ccc(S(=O)(=O)n2cncn2)cc1 [HHS-0401, 4-((1H-1,2,4-triazol-1-yl)sulfonyl)-N-benzylbenzamide]
FAH Y244 site liganded ([1]; live DM93 cells treated with ligand): > 90% | liganded tyrosine site 265 ([2]; 25 μM 2 h, live DM93 cells): HHS0401.Y (tyrosine sites that showed >80% reductions (SR >5) in probe labeling in cells treated with compounds (liganded sites))

O=C(c1ccc(S(=O)(=O)n2cncn2)cc1)N1CCC(c2ccccc2)CC1 [HHS-0701, (4-((1H-1,2,4-triazol-1-yl)sulfonyl)phenyl)(4-phenylpiperidin-1-yl)methanone]
SILAC ratio (SR), PTGR2 Y100 ([2]; 25 μM 2 h, live DM93 cells): 11 | SILAC ratio (SR), PTGR2 Y265 ([2]; 25 μM 2 h, live DM93 cells): < 5 | liganded tyrosine site 100 ([2]; 25 μM 2 h, live DM93 cells): HHS0701.Y (tyrosine sites that showed >80% reductions (SR >5) in probe labeling in cells treated with compounds (liganded sites)) | PTGR2 Y100 liganded ([2]; ligand-treated DM93 cells): ~90%
